{
  "source": "patent US8471061B2",
  "about": "(priority 2004, dated 2013)",
  "tested_on": "Chlorella sp.",
  "experiment": "Culturing of plankton",
  "format": "cell-based",
  "conditions": "1 mM additive",
  "protocol": "(§1) 5-Aminolevulinic acid nitrate was added, to a concentration of 1 mM (194 ppm), to 100 ml of a sterilized culture shown in Table 17 (components of the culture), and a Chlorella sp. was inoculated therein and cultured on a reciprocal shaker at 30° C. under aerobic and dark conditions to measure the amount of cells (OD 660).\nas §1, with “acid hydrochloride” for “acid nitrate”, “mM (168” for “mM (194”, “of the” for “of a”, “and the” for “and a”\nThe Chlorella sp. was inoculated into 100 ml of the sterilized culture shown in Table 17 (components of the culture) and cultured on a reciprocal shaker at 30° C. under aerobic and dark conditions to measure the amount of cells (OD 660).",
  "data": [
    {"smiles": "Cl.NCC(=O)CCC(=O)O", "note": "[5-aminolevulinic acid hydrochloride, reference compound]", "values": [
      {"measurement": "amount of cells: OD 660 nm", "setting": "Culture time 0 day", "result": 1.8},
      {"measurement": "amount of cells: OD 660 nm", "setting": "Culture time 1 day", "result": 6.3},
      {"measurement": "amount of cells: OD 660 nm", "setting": "Culture time 2 day", "result": 12.5},
      {"measurement": "amount of cells: OD 660 nm", "setting": "Culture time 3 day", "result": 14.8}
    ]}
  ]
}
